Literature values in patent US20090018107A1, “NOVEL COMPOSITION TO INCREASE MUSCLE STRENGTH” (ORAL DELIVERY TECHNOLOGY LTD., priority 2007, published 2009).

Assays:
[1] = U.S. Pat. No. 5,880,117
[2] = U.S. Pat. No. 6,989,378

C[C@]12CC[C@H]3[C@@H](CCC4=C[C@@H](O)CC[C@@]43C)[C@@H]1CC[C@@H]2O [4-androstene-3β,17β-diol]
Period of decline after the peak [1]: 3 to 4 h
Time to peak concentration after administration [1]: ≤ 90 min

CCCCCCCCCCC(=O)O[C@H]1CC[C@H]2[C@H]3[C@H](CC[C@]12C)[C@H]1CCC(=O)C=C1C[C@H]3C [MENT undecanoate, (7α,17β)-7-methyl-17-[(1-ox-oundecyl)oxy]estr-4-en-3one]
Solubility in oily media [2]: good solubility
